# Measurements from patent US20210179655A1, “Prodrugs of a JAK Inhibitor Compound for Treatment of Gastrointestinal Inflammatory Disease” (THERAVANCE BIOPHARMA R&D IP, LLC, priority 2015, published 2021).
# Key:
# [1] = system: oxazolone-induced colitis; assay: Mouse model of oxazolone-induced colitis; assay type: in vivo
# Protocol: Oxazolone-induced colitis is an experimental model that has a histological resemblance to human ulcerative colitis (Heller et al. […], 2002, 17, 629-638). Adult BALB/C mice (25-28 g, 9-12 weeks of age) from BioNeeds (India) were used in the assay. On day 1, animals were lightly anesthetized with isoflurane and the hairs between the shoulder were carefully removed before oxazolone (6 mg/mouse, 100 μL, 4:1 acetone: olive oil formulation) or vehicle solution was slowly applied for skin sensitization. Six days after skin sensitization, the mice were fasted overnight, anesthetized with ketamine and xylazine administered IP, and a 1 mL syringe filled with oxazolone solution, was inserted carefully ˜3.8 cm into the colon of the mouse. Animals were kept in a head down position and oxazolone (0.5 mg/50 μL/mouse in 50% ethanol) or 50% ethanol/saline was rectally instilled very slowly over a minute. The mice were held vertically (head down) for another minute to ensure that the entire oxazolone solution remained inside the colon. Drug treatment (PO, BID or TID) or vehicle was initiated the evening prior to the oxazolone intrarectal (IR) challenge. On both first (Day 1) and second (Day 2) days post-oxazolone IR challenge, the Disease Activity Index (DAI) was assessed by treatment-blinded experimenters for each mouse, according to the following subscores: stool consistency (0, normal; 2, loose; 4, diarrhea), gross bleeding and hemoccult test (0, absence; 2, blood tinged; 4, overt blood presence), and weight loss (0, none; 1, 1%-5%; 2, 6%-10%; 3, 11%-15%; 4, more than 15%); DAI=average of (stool consistency+blood presence+weight loss scores).
# An area-under-the-curve (AUC) calculation based on total DAI scores was performed to track disease progression during the course of the experiment. AUC for each experimental group was calculated as: AUC=[(Day 1−Day 0)*Average (DAI Score of Day 0 & Day 1)]+[(Day 2−Day 1)*Average (DAI Score of Day 1 & Day 2)]. A Student's t-test compared the DAI AUC score of the vehicle/vehicle and vehicle/oxazolone groups to evaluate whether disease was induced following oxazolone treatment. This was followed by a one way ANOVA, with Dunnett's post hoc test, to compare the DAI AUC score of the vehicle/oxazolone and test compound/oxazolone groups. Statistical significance was defined by an α level set at p<0.05.
# [2] = Rat colon fecal homogenate stability; assay type: in vitro ADME; settings: male, rat colon fecal homogenate supernatant, read-out: T½ (In vitro colonic stability, loss of pro-drug)
# Protocol: The objective of this study was to determine the stability of the present compounds in rat colon fecal homogenate, i.e. the half-life for decomposition in the presence of the β-glucuronidase in rat colon feces.
# Following sacrifice of a naïve male rat (˜300 g) by cardiac puncture exsanguination, the colon was ligated and removed to an anaerobic chamber (AS-580, Anaerobe Systems). The fecal content was removed within the chamber and was diluted 1:10 (1 gram to 9 mL phosphate buffer) and then homogenized using a handheld Omni Tissue Master. The fecal homogenate was centrifuged at 2000 g for 10 min to remove bulk and the supernatant was removed and used for the incubations.
# Test articles and a positive control (sulfasalazine) were prepared as 10 mM DMSO stocks. The final substrate concentration of each assay was 10 μM (30 μM for compound 5). Reactions were started by adding a 5 μL aliquot of diluted test compound stock into 300 μL of rat fecal supernatant-homogenate. At 0, 15, 30, 60, 90, and 120 min post reaction initiation, a 50 μL aliquot was removed into 200 μL of acetonitrile with 3% formic acid and an internal standard molecule. All samples were centrifuged at 2000 g for 10 min after which 50 μL of supernatant was diluted into 150 μL of water for analysis on an LC-MS system. In vitro half-lives for loss of pro-drug were calculated as follows: (T½=0.693/elimination rate constant).
# [3] = Metabolic stability of comparison compounds in rat colon content; assay type: in vitro ADME; settings: 10 μM in rat colonic content, up to 120 min
# Protocol: Colonic fecal content was harvested from a naïve male Sprague Dawley rat and was diluted 1:10 (1 gram to 9 mL phosphate buffer) and then homogenized using a handheld Omni Tissue Master. […] A 5 μL aliquot of diluted test compound was spiked into 300 μL of rat colonic content homogenate to begin the reaction at 37° C. Aliquots (50 μL) were removed from the incubation at the following time points (0, 15, 50, 85, and 120 min) and added into 200 μL of ACN with 3% formic acid and an internal standard molecule. […] All samples were centrifuged at 2000×g for 10 min after which 50 μL of supernatant was diluted into 150 μL of water and analyzed using a Thermo Q-Exactive LC-MS system. GraphPad Prism and Microsoft Excel were used to tabulate and plot the data.
# [4] = system: splenic NK cells; assay: Immunosuppression effects in mouse splenic natural killer (NK) cells; assay type: in vivo; settings: mouse, oral dosing for three days
# Protocol: Adult male Balb/C mice (12-14 weeks of age) from Harlan were used for the study. […] Spleens were harvested 30 min or 3 h post last dose and crushed immediately for cell subtype staining. Prior to fixation, fluorophore-labelled antibodies for CD19 (FITC; B cells), CD3e (PE; pan T cells) and DX5 (APC; NK cells) were incubated with splenocyte samples from each animal to allow for simultaneous, multiple subtype % analysis on the flow cytometer. The number of total spleen cells for each animal was measured by Scepter™ 2.0 Handheld Automated Cell Counter.
# The absolute number of lymphocyte subtype population (e.g., splenic B, T and NK cells) was calculated from the percentage of each subtype times total spleen cells for each animal. A one way ANOVA, with Dunnett's post hoc test, was used to compare the splenic lymphocytes number of the vehicle and test compound groups. The a level was set at p<0.05. Data were presented as the mean SEM for each group.
compound,measurement,setting,value
"C[C@@H]1CCN(C(=O)CC#N)C[C@@H]1N(C)c1ncnc2c1ccn2C(=O)N(C)CCN(C)C(=O)OCc1ccc(O[C@@H]2O[C@H](C(=O)O)[C@@H](O)[C@H](O)[C@H]2O)cc1 [Compound 4, (2S,3S,4S,5R,6S)-6-(4-((((2-(4-(((3R,4R)-1-(2-cyanoacetyl)-4-methylpiperidin-3-yl)(methyl)amino)-N-methyl-7H-pyrrolo[2,3-d]pyrimidine-7-carboxamido)ethyl)(methyl)carbamoyl)oxy)methyl)phenoxy)-3,4,5-trihydroxytetrahydro-2H-pyran-2-carboxylic acid]",reversal of oxazolone-induced colitis (DAI AUC score),"[1]; separate experiment, 3, 10, and 30 mg/kg, PO, BID, similar magnitude to tofacitinib 30 mg/kg",significant reversal
same,half-life at 10 μM,[2],1 to 13 min
"Cc1cc(COC(=O)N(C)CCN(C)C(=O)n2ccc3c(N(C)[C@H]4CN(C(=O)CC#N)CC[C@H]4C)ncnc32)ccc1O[C@@H]1O[C@H](C(=O)O)[C@@H](O)[C@H](O)[C@H]1O [Compound 5, (2S,3S,4S,5R,6S)-6-(4-((((2-(4-(((3R,4R)-1-(2-cyanoacetyl)-4-methylpiperidin-3-yl)(methyl)amino)-N-methyl-7H-pyrrolo[2,3-d]pyrimidine-7-carboxamido)ethyl)(methyl)carbamoyl)oxy)methyl)-2-methylphenoxy)-3,4,5-trihydroxytetrahydro-2H-pyran-2-carboxylic acid]",half-life at 30 μM,[2]; 30 μM,6 min
"C[C@@H]1CCN(C(=O)CC#N)C[C@@H]1N(C)c1ncnc2c1ccn2C(=O)N(C)CCN(C)C(=O)OCc1ccc(O[C@@H]2O[C@H](C(=O)O)[C@@H](O)[C@H](O)[C@H]2O)c(Cl)c1 [Compound 6, (2S,3S,4S,5R,6S)-6-(2-chloro-4-((((2-(4-(((3R,4R)-1-(2-cyanoacetyl)-4-methylpiperidin-3-yl)(methyl)amino)-N-methyl-7H-pyrrolo[2,3-d]pyrimidine-7-carboxamido)ethyl)(methyl)carbamoyl)oxy)methyl)phenoxy)-3,4,5-trihydroxytetrahydro-2H-pyran-2-carboxylic acid]",half-life at 10 μM,[2],7 min
"COc1cc(COC(=O)N(C)CCN(C)C(=O)n2ccc3c(N(C)[C@H]4CN(C(=O)CC#N)CC[C@H]4C)ncnc32)ccc1O[C@@H]1O[C@H](C(=O)O)[C@@H](O)[C@H](O)[C@H]1O [Compound 7, (2S,3S,4S,5R,6S)-6-(4-((((2-(4-(((3R,4R)-1-(2-cyanoacetyl)-4-methylpiperidin-3-yl)(methyl)amino)-N-methyl-7H-pyrrolo[2,3-d]pyrimidine-7-carboxamido)ethyl)(methyl)carbamoyl)oxy)methyl)-2-methoxyphenoxy)-3,4,5-trihydroxytetrahydro-2H-pyran-2-carboxylic acid]",half-life at 10 μM,[2],3 to 8 min
CN(CCN(C)C(=O)OCc1ccc(O[C@@H]2O[C@H](C(=O)O)[C@@H](O)[C@H](O)[C@H]2O)c([N+](=O)[O-])c1)C(=O)Nc1ccc(O)c(C(=O)O)c1 [Compound C-1],generation of active metabolite from the pro-drug,[3],failed to generate any measurable amounts
Cc1cc(S(C)(=O)=O)ncc1-c1ccc2c(c1)cc(-c1cncc(F)c1C)n2C(=O)N(C)CCN(C)C(=O)OCc1ccc(O[C@@H]2O[C@H](C(=O)O)[C@@H](O)[C@H](O)[C@H]2O)c([N+](=O)[O-])c1 [Compound C-2],generation of active metabolite from the pro-drug,[3],failed to generate any measurable amounts
"C[C@@H]1CCN(C(=O)CC#N)C[C@@H]1N(C)c1ncnc2[nH]ccc12 [Tofacitinib, 3-((3R,4R)-4-methyl-3-(methyl(7H-pyrrolo[2,3-d]pyrimidin-4-yl)amino)piperidin-1-yl)-3-oxopropanenitrile, reference compound]",Systemic functional activity (splenic NK depletion),[4],10 mg/kg
same,"In vivo efficacy (oxazolone colitis), effective dose",[1]; Effective dose that exhibits a comparable pharmacological effect in the oxazolone model compared to its vehicle,30 mg/kg
